Reference: patent publication US20260263431A1, “ARYL HYDROCARBON RECEPTOR AGONIST PRODRUGS AND METHODS OF USE THEREOF” (Allianthera (Suzhou) Biopharmaceutical Co., Ltd., priority 2022, published 2026)

Columns and labels:
[1] = Caco-2 permeability assay (AB); assay type: in vitro ADME; settings: human, apical to basolateral
Experimental: (§1) Compounds were tested under typical Caco-2 and S9 assay conditions.

S9 stability assay = assay type: in vitro ADME; settings: read-out: mouse S9 Clint
Experimental: as §1

[2] = In vitro anaerobic metabolism in mouse fecal homogenate; assay type: in vitro ADME; settings: 20 μM, anaerobic 37° C.
Experimental: (§2) The ability of the compounds of Formula (I) to release the active compound in the small or large intestine is assessed by introducing representative compounds of the disclosure to the contents of either a rodent small intestine or a rodent large intestine for up to 24 hours at 37° C. The amount of active drug released after the incubation period is determined by LC-MS/MS. Additional studies are conducted by incubating representative compounds of the disclosure with human fecal samples.
(§3) In Vitro Anaerobic Metabolism in Fecal Homogenates (vs. Control)
(§4) Compound 1 was dissolved in PBS (pH 7.4) to provide a 200 μM working solution. An aliquot of 50 μL volume was spiked to each 450 μL fecal homogenate incubation sample to provide an incubation concentration at 20 μM.
(§5) An estimated 1 g to 2 g wet weight of fecal material from healthy mice and rats (separately) was immediately collected in a pre-labelled 50 mL EP tube and stored at ambient room temperature. Based on the weight of each fecal material, a dilution with 0.01 M isotonic phosphate buffer (pH 7.0) is performed to provide a 12.5× diluted fecal homogenate. All fecal materials were stored at room temperature before being used in fecal homogenate preparation.
(§6) Under anaerobic conditions, each of the fecal specimen materials collected in 0.01 M isotonic phosphate buffer (pH 7.0) was homogenized by shaking and mixing with a stirrer. Each lot of the fecal homogenate material was added with an appropriate volume of 0.01 M isotonic phosphate buffer (pH 7.0) to provide fecal homogenate at 12.5× dilution. Under anaerobic condition in a nitrogen glove box purged with high purity nitrogen to ensure <1% oxygen level, the fecal homogenate was transferred to a clean container and diluted with 3 volumes of Brain Heart Infusion Broth (BHI) to provide a 50× diluted fecal homogenate. The diluted fecal homogenate matrix at an aliquot of 0.45 mL was dispensed into 2-mL EP tube, freshly prepared Compound 1 working solutions were then spiked to the fecal homogenate sample vials for incubation over the metabolic stability time-course.
(§7) Compound 1 was incubated at a target concentration of 20 μM in each fecal homogenate over a time course of 0, 1, 2, 4, 6 and 24 hours. Metabolic incubation at each time point was performed in triplicate. Incubation of the samples was performed in 2-mL EP tube. Into each pre-labeled sample vial, 50 μL of a Compound 1 working solution was accurately dispensed followed by the addition of the 0.45 mL pre-incubated fecal homogenate. Sample were capped, vortex mixed and incubated under an anaerobic environment at 37° C. At the end of each incubation time point, 1.0 mL of IS (Internal Standard) as a stop solvent was added to each sample with vortex mixed to stop the metabolic reactions. Samples at the 0-hour time point were pre-treated with the addition of IS stop solvent prior to the spiking of fecal homogenate and Compound 1. All samples were stored at −80° C. prior to LC-MS/MS assay. Samples are analyzed by LC-MS/MS. The MS detection is performed using a Sciex API 5500+ instrument. Each compound is analyzed by reverse phase HPLC.

[3] = In vitro anaerobic metabolism in rat fecal homogenate; assay type: in vitro ADME; settings: 20 μM, anaerobic 37° C.
Experimental: as §2, §3, §4, §5, §6, §7

[4] = Stability in BHI broth (vehicle stability control); assay type: in vitro ADME; settings: 20 μM
AHR = target: T1, AHR (Homo sapiens, UniProt P35869); test: AHR activity of the metabolite (reEC50 / abEC50); assay type: cell-based; settings: relative to tapinarof at 1 μM
T1 sequence (P35869 11-848): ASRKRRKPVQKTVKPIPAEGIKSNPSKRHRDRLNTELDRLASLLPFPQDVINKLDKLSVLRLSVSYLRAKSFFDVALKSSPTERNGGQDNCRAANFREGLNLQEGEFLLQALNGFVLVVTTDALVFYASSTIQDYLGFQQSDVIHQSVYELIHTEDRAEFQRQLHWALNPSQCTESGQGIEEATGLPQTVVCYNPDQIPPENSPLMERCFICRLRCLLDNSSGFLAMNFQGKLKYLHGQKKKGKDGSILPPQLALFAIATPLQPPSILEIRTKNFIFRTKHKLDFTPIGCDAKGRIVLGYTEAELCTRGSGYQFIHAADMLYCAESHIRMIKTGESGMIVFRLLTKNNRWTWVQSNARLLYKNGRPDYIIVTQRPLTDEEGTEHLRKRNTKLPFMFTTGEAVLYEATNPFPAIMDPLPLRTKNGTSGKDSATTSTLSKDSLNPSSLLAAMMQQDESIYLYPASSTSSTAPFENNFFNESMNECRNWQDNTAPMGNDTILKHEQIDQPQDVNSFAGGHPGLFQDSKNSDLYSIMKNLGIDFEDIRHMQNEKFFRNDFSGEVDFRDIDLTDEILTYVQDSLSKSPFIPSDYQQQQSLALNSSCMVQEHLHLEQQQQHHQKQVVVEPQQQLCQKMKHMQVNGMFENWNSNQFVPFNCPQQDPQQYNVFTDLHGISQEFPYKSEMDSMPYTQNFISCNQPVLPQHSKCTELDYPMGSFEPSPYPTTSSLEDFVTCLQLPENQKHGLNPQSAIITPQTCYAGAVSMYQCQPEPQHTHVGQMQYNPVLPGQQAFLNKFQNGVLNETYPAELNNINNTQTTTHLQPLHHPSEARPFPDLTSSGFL
Experimental: The AHR activity of the metabolite is measured as AHR reEC50 (as % activation to tapinarof at 1 μM)—of 166.1 nM (69.5%) and a AHR abEC50 of 241.5 nM.

Structure (SMILES)	Papp A→B [1] [nm/s]	intrinsic clearance in mouse S9 (S9 stability assay) [µL/min/mg]	other results
CC(C)c1c(OP(=O)(O)O)cc(-c2cnc3ccccc3c2)cc1OP(=O)(O)O [Compound 4, 2-isopropyl-3-(phosphonooxy)-5-(quinolin-3-yl)phenoxyphosphonic acid]	< 2	3.43	–
Cc1ccnc2cc(-c3cc(F)c(C(C)C)c(OP(=O)(O)O)c3)ccc12 [Compound 11, 3-fluoro-2-isopropyl-5-(4-methylquinolin-7-yl)phenyl dihydrogen phosphate]	–	0.68	–
CC(C)c1ncc(/C=C/c2ccccc2)cc1OS(=O)(=O)O [Compound 1, {2-isopropyl-5-[(E)-2-phenylethenyl]pyridin-3-yl}oxidanesulfonic acid]	4.4	4.91	Compound 1 Conc. Average ([2]; 0 hr): 23.7 µM; Compound 1 Conc. Average ([2]; 1 hr): 21.8 µM; Compound 1 Conc. Average ([2]; 2 hr): 21.6 µM; Compound 1 Conc. Average ([2]; 4 hr): 19.2 µM; Compound 1 Conc. Average ([2]; 6 hr): 14.75 µM; Compound 1 Conc. Average ([2]; 24 hr): 0.0738 µM; Compound 1 Conc. Average ([3]; 0 hr): 25.05 µM; Compound 1 Conc. Average ([3]; 1 hr): 21.3 µM; Compound 1 Conc. Average ([3]; 2 hr): 20.55 µM; Compound 1 Conc. Average ([3]; 4 hr): 14.2 µM; Compound 1 Conc. Average ([3]; 6 hr): 3.02 µM; Compound 1 Conc. Average ([3]; 24 hr): 0.0657 µM; Compound 1 Conc. Average ([4]; 0 hr): 23.2 µM; Compound 1 Conc. Average ([4]; 24 hr): 21.9 µM
CC(C)c1ncc(/C=C/c2ccccc2)cc1O [metabolite]	–	–	% activation to tapinarof at 1 μM (AHR): 69.5%
CC(C)c1c(F)cc(/C=C/c2ccccc2)cc1OS(=O)(=O)O [Compound 10, {3-fluoro-2-isopropyl-5-[(E)-2-phenylethenyl]phenyl}oxidanesulfonic acid]	2.5	0.47	–
CC(C)c1ncc(/C=C/c2ccc(F)cc2)cc1OS(=O)(=O)O [Compound 6, {5-[(E)-2-(4-fluorophenyl)ethenyl]-2-isopropylpyridin-3-yl}oxidanesulfonic acid]	6.2	1.26	–
CC(C)c1c(O)cc(-c2ccc3cc(F)ccc3n2)cc1OS(=O)(=O)O [Compound 8, [5-(6-fluoroquinolin-2-yl)-3-hydroxy-2-isopropylphenyl]oxidanesulfonic acid]	–	0.02	–
CCCc1c(F)cc(/C=C/c2ccccc2)cc1OS(=O)(=O)O [Compound 9, {3-fluoro-5-[(E)-2-phenylethenyl]-2-propylphenyl}oxidanesulfonic acid]	2.9	0.7	–
CC(C)c1c(O)cc(-c2cc(F)c3cnc(N)nc3c2)cc1OS(=O)(=O)O [Compound 7, [5-(2-amino-5-fluoroquinazolin-7-yl)-3-hydroxy-2-isopropylphenyl]oxidanesulfonic acid]	3.7	–	–
CC(C)c1ncc(/C=C/c2ccccc2F)cc1OS(=O)(=O)O [Compound 5, {5-[(E)-2-(2-fluorophenyl)ethenyl]-2-isopropylpyridin-3-yl}oxidanesulfonic acid]	4.4	2.64	–
CC(C)c1c(O)cc(-c2cc3ccccc3cn2)cc1OS(=O)(=O)O [Compound 2, [3-hydroxy-2-isopropyl-5-(isoquinolin-3-yl)phenyl]oxidanesulfonic acid]	–	1.18	–
CC(C)c1c(O)cc(-c2cnc3ccccc3c2)cc1OS(=O)(=O)O [Compound 3, [3-hydroxy-2-isopropyl-5-(quinolin-3-yl)phenyl]oxidanesulfonic acid]	2.9	–	–
